This is an account of results in patent US12180192B2, “Modulators of THR-β and methods of use thereof” (ALIGOS THERAPEUTICS, INC., priority 2019, dated 2024).

In one experiment the target is T1, THR alpha (Homo sapiens, UniProt P10827).
T1 construct: expressed in transfected cells; host or cells: HEK293T (ATCC CRL-3216)
T1 sequence (P10827 1-410 isoform P10827-2): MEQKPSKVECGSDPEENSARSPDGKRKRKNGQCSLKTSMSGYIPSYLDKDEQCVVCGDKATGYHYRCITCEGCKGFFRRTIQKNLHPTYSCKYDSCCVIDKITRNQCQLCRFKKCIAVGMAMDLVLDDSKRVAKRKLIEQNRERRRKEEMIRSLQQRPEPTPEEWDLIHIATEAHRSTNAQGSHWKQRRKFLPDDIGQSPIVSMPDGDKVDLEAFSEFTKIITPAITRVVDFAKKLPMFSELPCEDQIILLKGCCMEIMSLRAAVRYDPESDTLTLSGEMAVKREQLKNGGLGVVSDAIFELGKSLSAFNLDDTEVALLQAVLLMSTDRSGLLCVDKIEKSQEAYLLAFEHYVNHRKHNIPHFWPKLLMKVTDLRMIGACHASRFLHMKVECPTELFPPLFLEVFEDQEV
T1 sequence (P19793 1-462 partner): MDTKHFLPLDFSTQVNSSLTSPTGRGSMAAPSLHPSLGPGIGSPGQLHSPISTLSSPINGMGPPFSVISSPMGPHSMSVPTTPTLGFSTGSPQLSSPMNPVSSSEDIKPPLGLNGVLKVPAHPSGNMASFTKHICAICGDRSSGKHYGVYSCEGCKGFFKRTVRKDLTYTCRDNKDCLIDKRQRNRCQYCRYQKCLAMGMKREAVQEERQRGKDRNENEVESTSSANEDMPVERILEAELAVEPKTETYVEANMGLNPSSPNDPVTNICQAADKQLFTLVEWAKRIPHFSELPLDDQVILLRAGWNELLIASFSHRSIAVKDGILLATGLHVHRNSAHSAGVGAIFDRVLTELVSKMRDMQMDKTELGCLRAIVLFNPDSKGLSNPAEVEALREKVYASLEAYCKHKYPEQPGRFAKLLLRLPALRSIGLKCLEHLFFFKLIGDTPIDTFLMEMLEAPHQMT
Nature of the experiment: HEK293T THR alpha/RXR luciferase reporter assay (Assay 2). Format: cell-based. The note with it: Assay 2; for Emax: HEK-293T, Table 5, THRα, read-out: Activity category Assay 2 THRα (Emax); for EC50: Table 4, THR-alpha, read-out: Activity category Assay 2 (EC50, THR-alpha agonist activity). Summed up:
(§1)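 Compounds tested as ten-point five-fold dilution series for 18-24 h on transiently transfected HEK293T cells carrying TRE-driven luciferase plus RXR and either THR alpha or beta expression plasmids. Read-out by One-Glo luminescence, expressed as percent agonism relative to negative and positive controls.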
(In general: Reporter assays use an easily measured gene product as a stand-in for the process of interest.)

In experiment [1] the target is T2, human thyroid receptor alpha ligand-binding domain (LBD) (Homo sapiens, UniProt P10827).
T2 construct: purchased Invitrogen
Nature of the experiment: TR-FRET thyroid receptor alpha coactivator assay (THR biochemical assay, Assay 1). The settings on record: for EC50: Table 4, THR-alpha, read-out: Activity category Assay 1 (EC50, THR-alpha agonist activity); for Emax: Table 5, THRα, read-out: Activity category Assay 1 THRα (Emax). Summed up:
(§2)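 Agonist-driven coactivator recruitment measured by TR-FRET: terbium anti-GST antibody (2 nM) bound to GST-LBD of TRβ or TRα (1 nM final, stated for β), with fluorescein SRC2-2 peptide at 200 nM. Compounds at 1% DMSO. Read after 1 h, room temperature, protected from light.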
(TR-FRET usually uses a lanthanide donor and a delayed reading to cut background.)

Experiment [2] addresses T3, human thyroid receptor beta ligand-binding domain (LBD) (Homo sapiens, UniProt P10828).
T3 construct: purchased Invitrogen
T3 sequence (P10828 217-461 limits assumed): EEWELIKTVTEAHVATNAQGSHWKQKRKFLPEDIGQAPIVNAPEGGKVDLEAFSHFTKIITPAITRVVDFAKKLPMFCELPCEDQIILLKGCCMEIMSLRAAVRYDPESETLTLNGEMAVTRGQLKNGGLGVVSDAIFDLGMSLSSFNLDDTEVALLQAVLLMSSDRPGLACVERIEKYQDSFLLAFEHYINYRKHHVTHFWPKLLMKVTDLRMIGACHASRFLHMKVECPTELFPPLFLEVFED
Nature of the experiment: TR-FRET thyroid receptor beta coactivator assay (THR biochemical assay, Assay 1). The settings on record: for EC50: THR-beta, TR-FRET coactivator assay, read-out: Activity category Assay 1 (EC50, THR-beta agonist); for Emax: Table 5, Assay 1, THRβ, read-out: Activity category Assay 1 THRβ (Emax). Summed up: as §2

In a further experiment the target is T4, THR beta (Homo sapiens, UniProt P10828).
T4 construct: expressed in transfected cells; host or cells: HEK293T (ATCC CRL-3216)
T4 sequence (P10828 1-461): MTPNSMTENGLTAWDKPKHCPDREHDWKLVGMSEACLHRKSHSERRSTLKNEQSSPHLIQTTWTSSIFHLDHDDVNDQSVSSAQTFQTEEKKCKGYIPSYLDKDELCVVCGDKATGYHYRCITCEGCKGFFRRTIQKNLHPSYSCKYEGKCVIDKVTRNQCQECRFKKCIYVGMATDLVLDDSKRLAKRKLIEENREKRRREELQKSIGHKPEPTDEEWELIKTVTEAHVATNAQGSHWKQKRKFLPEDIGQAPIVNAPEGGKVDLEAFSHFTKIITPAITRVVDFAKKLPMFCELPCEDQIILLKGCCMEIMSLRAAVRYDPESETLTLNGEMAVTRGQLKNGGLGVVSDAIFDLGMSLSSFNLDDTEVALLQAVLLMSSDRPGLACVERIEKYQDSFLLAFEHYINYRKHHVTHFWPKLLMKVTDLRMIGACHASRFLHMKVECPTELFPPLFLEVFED
T4 sequence (P19793 1-462 partner): T1 sequence (P19793 1-462 partner)
Put plainly: HEK293T THR beta/RXR luciferase reporter assay (Assay 2). Format: cell-based. The settings on record: for Emax: HEK-293T, Table 5, Assay 2, THRβ, read-out: Activity category Assay 2 THRβ (Emax); for EC50: THR-beta, HEK293T reporter assay, read-out: Activity category Assay 2 (EC50, THR-beta agonist). Summed up: as §1

Where only a bound is given, the exact number is not on record here.

The term Emax denotes the greatest response seen or fitted, relative to the assay's reference. By EC50 is commonly meant the midpoint of the concentration-response curve.

In the case of `CC(c1cc(Oc2c(Cl)cc(-n3nc(N)c(=O)[nH]c3=O)cc2Cl)n[nH]c1=O)C1CC(F)(F)C1` (stereo not shown) [Compound 61, 6-amino-2-[3,5-dichloro-4-([5-[1-(3,3-difluorocyclobutyl)ethyl]-6-oxo-1H-pyridazin-3-yl]oxy)phenyl]-4H-1,2,4-tri-azine-3,5-dione], the Emax was above 75% at THR alpha, 50 to 75% in experiment [1], below 50% in experiment [2] and above 75% at THR beta. Further, the EC50 on THR alpha was 250 to 1000 nM; in experiment [1], 250 to 1000 nM; in experiment [2] it was below 50 nM; on THR beta it was 50 to 250 nM.

Turning to `Nc1nn(-c2cc(Cl)c(Oc3cc(-c4ccccc4)c(=O)[nH]n3)c(Cl)c2)c(=O)[nH]c1=O` [Compound 63, 6-amino-2-[3,5-dichloro-4-[(6-hydroxy-5-phenylpyridazin-3-yl)oxy]phenyl]-4H-1,2,4-triazine-3,5-dione], the Emax was 50 to 75% on THR alpha, below 50% in experiment [1], below 50% in experiment [2] and above 75% on THR beta. Moreover, the EC50 was 250 to 1000 nM at THR alpha, 250 to 1000 nM in experiment [1], 50 to 250 nM in experiment [2] and 50 to 250 nM at THR beta.

As to `Nc1nn(-c2cc(Cl)c(Oc3n[nH]c(=O)cc3-c3ccccc3)c(Cl)c2)c(=O)[nH]c1=O` [Compound 63-A, 6-amino-2-(3,5-dichloro-4-((6-oxo-4-phenyl-1,6-dihydropyridazin-3-yl)oxy)phenyl)-1,2,4-triazine-3,5(2H,4H)-dione], the Emax (at THR alpha; in experiment [1]; in experiment [2]; on THR beta) was below 50% in each case. The EC50 on THR alpha is above 10000 nM; in experiment [1] it was above 25000 nM; in experiment [2] it was above 25000 nM; on THR beta, above 10000 nM.

For the compound `Cc1cccc(-c2cc(Oc3c(Cl)cc(-n4nc(N)c(=O)[nH]c4=O)cc3Cl)n[nH]c2=O)c1F` [Compound 64, 6-amino-2-(3,5-dichloro-4-[[5-(2-fluoro-3-methylphenyl)-6-oxo-1H-pyridazin-3-yl]oxy]phenyl)-4H-1,2,4-triazine-3,5-dione], the Emax on THR alpha is below 50%; in experiment [1], below 50%; in experiment [2], below 50%; on THR beta it was 50 to 75%. Further, the half-maximal effective concentration (EC50) at THR alpha was 250 to 1000 nM; in experiment [1], 250 to 1000 nM; in experiment [2] it was below 50 nM; at THR beta, 50 to 250 nM.

For the compound `Nc1nn(-c2cc(Cl)c(Oc3cc(Cc4ccccc4)c(=O)[nH]n3)c(Cl)c2)c(=O)[nH]c1=O` [Compound 65, 6-amino-2-[4-[(5-benzyl-6-hydroxypyridazin-3-yl)oxy]-3,5-dichlorophenyl]-4H-1,2,4-triazine-3,5-dione], the Emax at THR alpha is below 50%; in experiment [1], below 50%; in experiment [2], below 50%; at THR beta, above 75%. Moreover, the EC50 is 1000 to 10000 nM at THR alpha, 250 to 1000 nM in experiment [1], below 50 nM in experiment [2] and 50 to 250 nM at THR beta.

As for `Cc1cc(-n2nc(C#N)c(=O)[nH]c2=O)cc(C)c1Cc1cnc2[nH]cc(C(C)C)c2n1` [Compound 66, 2-[4-[(7-isopropyl-5H-pyrrolo[2,3-b]pyrazin-2-yl)methyl]-3,5-dimethyl-phenyl]-3,5-dioxo-1,2,4-triazine-6-carbonitrile], the Emax at THR alpha was 50 to 75%; in experiment [1], below 50%; in experiment [2] it was 50 to 75%; on THR beta, above 75%. In addition, the EC50 on THR alpha was in the range of 1000 to 10000 nM; in experiment [1], 250 to 1000 nM; in experiment [2], 50 to 250 nM; on THR beta it was 1000 to 10000 nM.

On to `Nc1nn(-c2cc(Cl)c(Oc3cc(-c4cccc(Cl)c4)c(=O)[nH]n3)c(Cl)c2)c(=O)[nH]c1=O` [Compound 68, 6-Amino-2-(3,5-dichloro-4-((5-(3-chlorophenyl)-6-oxo-1,6-dihydropyridazin-3-yl)oxy)phenyl)-1,2,4-triazine-3,5(2H,4H)-dione], for which the Emax on THR alpha was 50 to 75%; in experiment [1], below 50%; in experiment [2], 50 to 75%; at THR beta it was above 75%. In addition, the EC50 is 50 to 250 nM at THR alpha, 50 to 250 nM in experiment [1], below 50 nM in experiment [2] and below 50 nM on THR beta.

In the case of `Nc1nn(-c2cc(Cl)c(Oc3cc(-c4cccc(F)c4)c(=O)[nH]n3)c(Cl)c2)c(=O)[nH]c1=O` [Compound 69, 6-Amino-2-(3,5-dichloro-4-((5-(3-fluorophenyl)-6-oxo-1,6-dihydropyridazin-3-yl)oxy)phenyl)-1,2,4-triazine-3,5(2H,4H)-dione], the Emax was 50 to 75% at THR alpha, below 50% in experiment [1], below 50% in experiment [2] and 50 to 75% on THR beta. Moreover, the EC50 on THR alpha fell in the range of 50 to 250 nM; in experiment [1], 250 to 1000 nM; in experiment [2], 50 to 250 nM; at THR beta it was 50 to 250 nM.

As for `CCc1cccc(-c2cc(Oc3c(Cl)cc(-n4nc(N)c(=O)[nH]c4=O)cc3Cl)n[nH]c2=O)c1` [Compound 71, 6-Amino-2-(3,5-dichloro-4-((5-(3-ethylphenyl)-6-oxo-1,6-dihydro-pyridazin-3-yl)oxy)phenyl)-1,2,4-triazine-3,5(2H,4H)-dione], the Emax on THR alpha is 50 to 75%; in experiment [1] it was below 50%; in experiment [2], below 50%; at THR beta it was above 75%. In addition, the EC50 is 50 to 250 nM at THR alpha, 50 to 250 nM in experiment [1], below 50 nM in experiment [2] and below 50 nM at THR beta.

Regarding `CC(C)(C)c1cc(Oc2c(Cl)cc(-n3nc(N)c(=O)[nH]c3=O)cc2Cl)n[nH]c1=O` [Compound 73, 6-Amino-2-(4-((5-(t-butyl)-6-oxo-1,6-dihydropyridazin-3-yl)oxy)-3,5-dichlorophenyl)-1,2,4-triazine-3,5(2H, 4H)-dione], the Emax is above 75% on THR alpha, 50 to 75% in experiment [1], below 50% in experiment [2] and above 75% on THR beta. Moreover, the EC50 on THR alpha fell in the range of 250 to 1000 nM; in experiment [1], 250 to 1000 nM; in experiment [2], 50 to 250 nM; on THR beta, 50 to 250 nM.

For `CC1(C)C(=O)Nc2nnc(Oc3c(Cl)cc(-n4nc(C#N)c(=O)[nH]c4=O)cc3Cl)cc21` [Compound 74, 2-[3,5-dichloro-4-[(5,5-dimethyl-6-oxo-7H-pyrrolo[2,3-c]pyridazin-3-yl)oxy]phenyl]3,5-dioxo-1,2,4-triazine-6-carbonitrile], the Emax at THR alpha is below 50%; in experiment [1], below 50%; in experiment [2], 50 to 75%; at THR beta it was below 50%. Besides, the EC50 on THR alpha was above 10000 nM; in experiment [1] it was 1000 to 25000 nM; in experiment [2], 1000 to 25000 nM; at THR beta it was above 10000 nM.
